The values that follow come from patent publication US8524916B2, “Dithiinetetra(thio)carboximides” (Bayer CropScience AG, priority 2010, dated 2013).

Common to all, as to assay type: in vivo
In one test the test system is Venturia inaequalis. In words: Venturia test (apple)/protective. Particulars: apple young plants, protective spray, application rate 250 ppm, evaluation 10 days after inoculation; 0% = control, 100% = no infection. On the procedure:
Venturia Test (Apple)/Protective [table] To produce an appropriate active ingredient formulation, 1 part by weight of active ingredient is mixed with the specified amounts of solvent and emulsifier, and the concentrate is diluted with water to the desired concentration. To test for protective activity, young plants are sprayed with the active ingredient formulation at the stated application rate. After the spray coating has dried on, the plants are inoculated with an aqueous conidia suspension of the apple scab pathogen Venturia inaequalis and then remain in an incubation cabin at approx. 20° C. and 100% relative air humidity for 1 day. The plants are then placed in a greenhouse at about 21° C. and a relative air humidity of approx. 90%.

In another test the test system is Alternaria solani. The experiment in a line: Alternaria test (tomato)/protective. Particulars: tomato young plants, protective spray, application rate 250 ppm, evaluation 3 days after inoculation; 0% = control, 100% = no infection. On the procedure:
Alternaria Test (Tomato)/Protective [table] To produce an appropriate active ingredient formulation, 1 part by weight of active ingredient is mixed with the specified amounts of solvent and emulsifier, and the concentrate is diluted with water to the desired concentration. To test for protective activity, young plants are sprayed with the active ingredient formulation at the stated application rate. After the spray coating has dried on, the plants are inoculated with an aqueous spore suspension of Alternaria solani. The plants are then placed in an incubation cabin at approx. 20° C. and 100% relative air humidity.

For another test, the system named is Plasmopara viticola. In words: Plasmopara test (grapevine)/protective. Particulars: grapevine young plants, protective spray, application rate 250 ppm, evaluation 6 days after inoculation; 0% = control, 100% = no infection. On the procedure:
Plasmopara Test (Grapevine)/Protective [table] To produce an appropriate active ingredient formulation, 1 part by weight of active ingredient is mixed with the specified amounts of solvent and emulsifier, and the concentrate is diluted with water to the desired concentration. To test for protective activity, young plants are sprayed with the active ingredient formulation at the stated application rate. After the spray coating has dried on, the plants are inoculated with an aqueous spore suspension of Plasmopara viticola and then remain in an incubation cabin at approx. 20° C. and 100% relative air humidity for 1 day. Subsequently, the plants are placed in a greenhouse at approx. 21° C. and approx. 90% air humidity for 4 days. The plants are then moistened and placed in an incubation cabin for 1 day.

The test system of a further test is Phytophthora infestans. As to conditions: tomato young plants, protective spray, application rate 250 ppm, evaluation 3 days after inoculation; 0% = control, 100% = no infection.

Molecules are shown by their SMILES.

In the case of `Cn1c(=O)c2sc3c(=O)n(C)c(=S)c3sc2c1=O` [drawing 24], the “Efficacy (%)” value with Venturia inaequalis was determined as 99%.

For `Cn1c(=O)c2sc3c(=S)n(C)c(=O)c3sc2c1=S` [drawing 27], the “Efficacy (%)” value in the test with Alternaria solani is reported as 76%.

As to `Cn1c(=O)c2sc3c(=O)n(C)c(=S)c3sc2c1=O` [drawing 23], in the test on Plasmopara viticola, the “Efficacy (%)” value was 83%.

Turning to `Cn1c(=O)c2sc3c(=S)n(C)c(=O)c3sc2c1=S` [drawing 25], in the test with Venturia inaequalis, the “Efficacy (%)” value is recorded as 71%.

`Cn1c(=O)c2sc3c(=O)n(C)c(=S)c3sc2c1=O` [drawing 22]: the “Efficacy (%)” value with Phytophthora infestans is recorded as 72%.

For `Cn1c(=O)c2sc3c(=O)n(C)c(=S)c3sc2c1=O` [drawing 26], in the test with Alternaria solani, the “Efficacy (%)” value is reported as 95%.
